The test system of assay [1] is MT4. Put plainly: The compound was tested for its cytotoxic activity against HIV-1 replication in MT-4 cells, (50% cytotoxic concentration). Type of assay: functional, Homo sapiens. Also noted: unit not given here.
Assay [2] in a line: Selectivity index of EC50 and CC50. Type of assay: functional.
The subject of assay [3] is MT4. As to the kind of experiment: The compound was tested for its inhibitory activity against HIV-1 replication in MT-4 cells(50% antiviral effective concentration); IA: inactive. Type of assay: functional, cell-based, Homo sapiens.

In the assay with MT4 [1], `CC(C)(C)OC(=O)N(CCCCCN1CCCN(CCCCCN(Cc2ccccc2)C(=O)OC(C)(C)C)CCN(CCCCCN(Cc2ccccc2)C(=O)OC(C)(C)C)CCCN(CCCCCN(Cc2ccccc2)C(=O)OC(C)(C)C)CC1)Cc1ccccc1` yielded a CC50 greater than 10. The compound further had an SI in assay [2] greater than 10.
The matching figures for `C1CNCCNCCCN(CCCN2CCCNCCNCCCNCC2)CCNC1`: greater than 100 and greater than 100.
The matching figures for `[Cl-].c1ccc(CNCCCCCN2CCCN(CCCCCNCc3ccccc3)CC[N+](CCCCCNCc3ccccc3)(CCCCCNCc3ccccc3)CCCN(CCCCCNCc3ccccc3)CC2)cc1`: 5 and 50.
The compound `CC(C)(C)OC(=O)N(CCCCCN1CCCN(CCCCCN(Cc2ccccc2)C(=O)OC(C)(C)C)CCN(CCCCCN(Cc2ccccc2)C(=O)OC(C)(C)C)CCC[N+](CCCCCN(Cc2ccccc2)C(=O)OC(C)(C)C)(CCCCCN(Cc2ccccc2)C(=O)OC(C)(C)C)CCC1)Cc1ccccc1.Cc1ccc(S(=O)(=O)[O-])cc1` showed a CC50 in the assay with MT4 [1] of 10. Also, the EC50 entry with MT4 [3] was “Not Active”.
Consider `CC(C)(C)OC(=O)N(CCCCCN1CCCN(CCCCCN(Cc2ccccc2)C(=O)OC(C)(C)C)CCCN(CCCCCN(Cc2ccccc2)C(=O)OC(C)(C)C)CCN(CCCCCN(Cc2ccccc2)C(=O)OC(C)(C)C)CCC1)Cc1ccccc1`, for which the CC50 in the assay with MT4 [1] is given as greater than 50. Further, the SI in assay [2] is greater than 5.
Consider `CC(C)(C)OC(=O)N(CCCCCN1CCCN(CCCCCN(Cc2ccccc2)C(=O)OC(C)(C)C)CC[N+](CCCCCN(Cc2ccccc2)C(=O)OC(C)(C)C)(CCCCCN(Cc2ccccc2)C(=O)OC(C)(C)C)CCCN(CCCCCN(Cc2ccccc2)C(=O)OC(C)(C)C)CC1)Cc1ccccc1.Cc1ccc(S(=O)(=O)[O-])cc1`, for which the CC50 in the assay on MT4 [1] is given as 50. Also, the SI in assay [2] was found to be 10.
In the assay with MT4 [1], `[Cl-].c1ccc(CNCCCCCN2CCCN(CCCCCNCc3ccccc3)CCN(CCCCCNCc3ccccc3)CCC[N+](CCCCCNCc3ccccc3)(CCCCCNCc3ccccc3)CCC2)cc1` showed a CC50 of 10. Besides, the EC50 entry with MT4 [3] was “Not Active”.
`c1ccc(CNCCCCCN2CCCN(CCCCCNCc3ccccc3)CCN(CCCCCNCc3ccccc3)CCCN(CCCCCNCc3ccccc3)CC2)cc1`: the CC50 in the assay with MT4 [1] stood at 10. The compound further had an SI in assay [2] of 10.
As to `c1ccc(CNCCCCCN2CCCN(CCCCCNCc3ccccc3)CCCN(CCCCCNCc3ccccc3)CCN(CCCCCNCc3ccccc3)CCC2)cc1`, the CC50 in the assay with MT4 [1] is listed as 1.
